Where two headings read alike, the source gives them in different places.
How the values were obtained:
B1-AR = target: T1, B1-AR (Homo sapiens, UniProt P08588); test: cAMP Gs dynamic HTRF assay, cells expressing beta-adrenergic receptor (CHO-K1), B1-AR; assay type: cell-based; details: for EC50: cAMP HTRF, read-out: pEC50 [B1-AR] (converted); for Emax: relative to full agonist isoproterenol, read-out: Emax (% iso) (%) [B1-AR]
T1 construct: expressed in transfected cells; host or cells: CHO-K1
Description: (§1) cAMP homogeneous time-resolved fluorescence (HTRF): experimental methods. Compound efficacy is determined using the cAMP Gs dynamic HTRF assay (Cisbio, catalog #62AM4PEC) largely following the manufacturer's instructions, also detailed below.
(§2) Standard serial dilution curves are 10-point, 5-fold dilutions starting from a highest concentration of 10 μM. Controls present on every assay plate are 0.1% DMSO (vehicle control), 1 μM isoproterenol (full beta-adrenergic agonist control) and […] xamoterol (partial beta-adrenergic agonist control). […] Assay plates are centrifuged at 500×g for 10 seconds. Compounds and IBMX are prepared at 2× final dose to compensate for addition of cells.
(§3) Cell preparation: 1× stimulation buffer, washing PBS (Dulbecco's phosphate-buffered saline, − Mg − Ca; Caisson Labs, catalog #PBL01), assay PBS (Dulbecco's phosphate-buffered saline, + Mg, + Ca; Caisson Labs, catalog #PBL02) and Versene (0.02% EDTA disodium salt solution in PBS without calcium or magnesium; Caisson Labs, catalog #EDL01) are pre-warmed to 37° C. Cells expressing beta-adrenergic receptor were washed in washing PBS to remove growth medium and then released from the surface by incubating with Versene for 5-10 minutes at 37° C. Cells are harvested using assay PBS, counted manually by hemocytometer or by an automated cell counter, pelleted by centrifugation (200×g, 5 minutes) and resuspended in 37° C. 1× stimulation buffer to a final density of 1.5×10^6 cells/mL. 5 μL of the suspended cell solution (7500 cell total) are added to all wells of the 384 well assay plate, the assay plate was covered with an Axygen® plate seal (Corning PCR-SP) and incubated in a humidified 37° C. environment supplemented with 5% CO2 for 30 minutes.
(§4) HTRF reagent addition, reading and data analysis: After 30 minutes of cell stimulation with test compound, the assay plates are centrifuged at 500×g for 10 seconds, and incubation was stopped with the addition of 5 μL cAMP-D2 acceptor, diluted 1:21 in detection and lysis buffer 2 (Cisbio 62CL2FDF) was added to all cells. Subsequently, 5 μL Anti-cAMP-Eu Donor, diluted 1:21 in detection and lysis buffer 2, was added to cells. Plates were sealed and reactions gently ‘vortexed’ at 900 rpm on a Heidolph Titramax 1000 for at least 30 minutes at room temperature. Plates are centrifuged again at 500×g for 10 seconds, and HTRF was measured using a Tecan Spark plate reader at 50 flashes per well. […] Potency estimates (EC50 and pEC50) are derived from the four-parameter nonlinear regression of the concentration-effect curve and an estimate of relative efficacy is determined by comparing the magnitude of the test compound HTRF signal window (min−max dose) with the signal window of the full agonist control, isoproterenol.

B2-AR = target: T2, B2-AR (Homo sapiens, UniProt P07550); test: cAMP Gs dynamic HTRF assay, cells expressing beta-adrenergic receptor (CHO-K1), B2-AR; assay type: cell-based; details: for Emax: relative to full agonist isoproterenol, read-out: Emax (% iso) (%) [B2-AR]; for EC50: cAMP HTRF, read-out: pEC50 [B2-AR] (converted)
T2 construct: expressed in transfected cells; host or cells: CHO-K1
Description: as §1, §2, §3, §4

T1 sequence (P08588 whole entry, species assumed): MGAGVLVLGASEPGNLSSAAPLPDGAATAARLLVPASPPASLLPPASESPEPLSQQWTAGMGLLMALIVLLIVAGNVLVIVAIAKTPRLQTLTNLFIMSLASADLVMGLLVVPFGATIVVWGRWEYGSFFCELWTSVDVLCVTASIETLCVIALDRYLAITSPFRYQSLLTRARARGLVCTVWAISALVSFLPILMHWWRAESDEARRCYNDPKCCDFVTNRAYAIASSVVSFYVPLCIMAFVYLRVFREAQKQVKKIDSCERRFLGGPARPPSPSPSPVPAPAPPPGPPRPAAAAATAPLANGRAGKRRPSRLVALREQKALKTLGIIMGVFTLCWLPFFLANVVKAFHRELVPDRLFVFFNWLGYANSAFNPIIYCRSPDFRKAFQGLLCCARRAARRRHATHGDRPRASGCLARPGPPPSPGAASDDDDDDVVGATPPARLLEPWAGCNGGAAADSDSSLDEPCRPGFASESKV
T2 sequence (P07550 whole entry, species assumed): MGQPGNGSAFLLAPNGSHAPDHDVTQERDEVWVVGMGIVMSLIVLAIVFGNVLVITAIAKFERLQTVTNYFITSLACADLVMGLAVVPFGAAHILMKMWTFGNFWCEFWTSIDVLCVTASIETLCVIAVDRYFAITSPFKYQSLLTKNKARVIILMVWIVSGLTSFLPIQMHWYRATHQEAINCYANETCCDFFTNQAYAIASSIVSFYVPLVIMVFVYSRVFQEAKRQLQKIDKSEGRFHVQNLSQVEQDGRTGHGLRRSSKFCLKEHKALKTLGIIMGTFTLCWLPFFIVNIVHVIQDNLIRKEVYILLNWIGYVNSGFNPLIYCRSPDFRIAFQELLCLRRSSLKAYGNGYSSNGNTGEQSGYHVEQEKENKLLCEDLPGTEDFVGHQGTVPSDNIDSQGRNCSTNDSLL

Emax (B2-AR; CHO-K1 cells) | SMILES | EC50 (B1-AR) | Emax (B1-AR) | Emax (B2-AR; CHO-K1, CHO-K1 cells) | EC50 (B2-AR; CHO-K1 cells)
– | CCC(C)(C)NC[C@H](O)c1cccc2[nH]nc(Cl)c12 [I-45] | < 10 nM | 70 to 90% | 70 to 90% | < 10 nM
– | CCC(C)(C)NC[C@H](O)c1cccc2[nH]cc(F)c12 [I-46] | < 10 nM | > 90% | > 90% | < 10 nM
– | CCC(C)(C)NC[C@H](O)c1cccc2[nH]ncc12 [I-47] | < 10 nM | 70 to 90% | > 90% | < 10 nM
– | CCC(C)(C)NC[C@H](O)c1cccc2[nH]nc(F)c12 [I-48] | < 10 nM | > 90% | > 90% | < 10 nM
– | CCC(C)(C)NC[C@H](O)c1ccc(Cl)c2[nH]ncc12 [I-49] | < 10 nM | 70 to 90% | 70 to 90% | < 10 nM
70 to 90% | CCC(C)(C)NC[C@H](O)c1ccc(F)c2[nH]ncc12 [I-50] | < 10 nM | 70 to 90% | – | < 10 nM
> 90% | CCC(C)(C)NC[C@H](O)c1cc(F)cc2[nH]ncc12 [I-51] | < 10 nM | 70 to 90% | – | < 10 nM
– | CCC(C)(C)NC[C@H](O)c1cc(C#N)cc2[nH]ncc12 [I-52] | 100 to 1000 nM | 70 to 90% | > 90% | 10 to 100 nM
70 to 90% | CCC(C)(C)NC[C@H](O)c1cncc2[nH]ncc12 [I-53] | 100 to 1000 nM | 70 to 90% | – | 10 to 100 nM
70 to 90% | CCC(C)(C)NC[C@H](O)c1cccc2[nH]nc(C)c12 [I-54] | 100 to 1000 nM | 70 to 90% | – | 10 to 100 nM
50 to 70% | Cn1nc(F)c2c([C@@H](O)CNC(C)(C)C)cccc21 [I-55] | < 10 nM | 70 to 90% | – | < 10 nM
50 to 70% | Cn1ncc2c([C@@H](O)CNC(C)(C)C)ccc(F)c21 [I-56] | 10 to 100 nM | 50 to 70% | – | < 10 nM
– | Cn1ncc2c([C@@H](O)CNC(C)(C)C)cc(F)cc21 [I-57] | 10 to 100 nM | 70 to 90% | 50 to 70% | < 10 nM
– | CC(C)(C)NC[C@H](O)c1cc(F)c(Cl)c2[nH]ncc12 [I-58] | < 10 nM | 70 to 90% | 70 to 90% | < 10 nM
– | COc1cc([C@@H](O)CNC(C)(C)C)c2cn[nH]c2c1F [I-59] | 100 to 1000 nM | < 50% | < 50% | 10 to 100 nM
– | Cc1ccc([C@@H](O)CNC(C)(C)C)c2c(F)n[nH]c12 [I-60] | < 10 nM | 70 to 90% | 70 to 90% | < 10 nM
70 to 90% | Cc1n[nH]c2cc(F)cc([C@@H](O)CNC(C)(C)C)c12 [I-61] | 10 to 100 nM | 70 to 90% | – | < 10 nM
70 to 90% | Cc1c(F)cc([C@@H](O)CNC(C)(C)C)c2cn[nH]c12 [I-62] | < 10 nM | 70 to 90% | – | < 10 nM
> 90% | CC(C)(C)CNC[C@H](O)c1cccc2c1C(F)(F)C(=O)N2 [I-63] | > 1000 nM | < 50% | – | 100 to 1000 nM
> 90% | Cn1ccc(CNC[C@H](O)c2cccc3[nH]ncc23)n1 [I-64] | 100 to 1000 nM | 70 to 90% | – | 100 to 1000 nM
70 to 90% | Cn1ccc(CNC[C@H](O)c2ccc(F)c3[nH]ncc23)n1 [I-65] | 100 to 1000 nM | 50 to 70% | – | 100 to 1000 nM
– | CC(C)(C)NC[C@@H](O)c1cncc2[nH]ncc12 [I-66] | > 1000 nM | 70 to 90% | > 90% | 100 to 1000 nM
– | Cc1cc([C@@H](O)CNC(C)(C)C)c2cn[nH]c2n1 [I-67] | 10 to 100 nM | > 90% | > 90% | < 10 nM

Source: US20240270701A1, “BETA ADRENERGIC AGONIST AND METHODS OF USING THE SAME” (Curasen Therapeutics, Inc., priority 2021, published 2024)
